Where a name gives a salt, the structure may show the parent alone.
Target: α7-subtype of nicotinic receptors (Rattus norvegicus, UniProt Q05941)
Assay: biochemical
Assay type: binding

Sequence of α7-subtype of nicotinic receptors (Q05941 23-502): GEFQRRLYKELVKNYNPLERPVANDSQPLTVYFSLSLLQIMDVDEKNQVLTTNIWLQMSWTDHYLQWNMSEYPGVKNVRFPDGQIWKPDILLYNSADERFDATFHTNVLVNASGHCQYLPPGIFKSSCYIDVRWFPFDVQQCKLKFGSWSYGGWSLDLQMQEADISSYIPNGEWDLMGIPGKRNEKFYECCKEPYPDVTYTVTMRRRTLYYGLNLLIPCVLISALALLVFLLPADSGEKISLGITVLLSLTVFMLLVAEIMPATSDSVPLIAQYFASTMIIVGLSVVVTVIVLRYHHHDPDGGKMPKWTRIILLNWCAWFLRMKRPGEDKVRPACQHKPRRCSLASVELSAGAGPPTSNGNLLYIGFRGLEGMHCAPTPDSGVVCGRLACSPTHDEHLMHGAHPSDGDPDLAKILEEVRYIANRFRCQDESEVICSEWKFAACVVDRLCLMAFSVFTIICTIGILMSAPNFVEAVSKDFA

Row | SMILES | IC50 [nM]
1 | Ic1cnc(N2CCN3CCC2CC3)nc1 [Compound 2, 4-(5-Iodopyrimidin-2-yl)-1,4-diazabicyclo[3.2.2]nonane fumaric acid salt] | 38
2 | Brc1cnc(N2CCN3CCC2CC3)nc1 [Compound 1, 4-(5-Bromo-pyrimidin-2-yl)-1,4-diaza-bicyclo[3.2.2]nonane fumaric acid salt] | 280
3 | Clc1cnc(N2CCN3CCC2CC3)nc1 [Compound 3, 4-(5-Chloropyrimidin-2-yl)-1,4-diazabicyclo[3.2.2]nonane fumaric acid salt] | 190
